In patent US20060069132A1, “Azolecarboxamide herbicides” (priority 2004, published 2006):

Legend:
barnyardgrass = test: Test A pre-/postemergence herbicide test; format: in vivo, Echinochloa crus-galli
Summary of the method: (§1)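 Greenhouse injury scoring (0–100, complete control = 100) at approximately ten days follows simultaneous pre- and postemergence application. Soil received a directed spray after seeding; seedlings of 2–10 cm at the one- to two-leaf stage were sprayed to runoff.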

large crabgrass = test: Test A pre-/postemergence herbicide test; format: in vivo, Digitaria sanguinalis
Summary of the method: as §1

redroot pigweed = test: Test A pre-/postemergence herbicide test; format: in vivo, Amaranthus retroflexus
Summary of the method: as §1

velvetleaf = test: Test B pre-/postemergence herbicide test; format: in vivo, Abutilon theophrasti; conditions: for Velvetleaf plant response rating: postemergence
Summary of the method: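 Herbicidal effect was judged by eye on a 0–100 scale after plants stood 13 to 15 days in the greenhouse following pre- or postemergence treatment with surfactant-containing formulations.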

bermudagrass = test: Test C pre-/postemergence herbicide test; format: in vivo, Cynodon dactylon; conditions: for Bermudagrass plant response rating: 500 g ai/ha
Summary of the method: (§2)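 Pre/post spray; non-phytotoxic solvent + surfactant. Post-timing 1–4 leaves, 2–18 cm. Read-out: visual % control vs untreated, day 12–14, greenhouse.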

cocklebur = test: Test C pre-/postemergence herbicide test; format: in vivo, Xanthium strumarium; conditions: for Cocklebur plant response rating: 500 g ai/ha
Summary of the method: as §2

johnsongrass = test: Test C pre-/postemergence herbicide test; format: in vivo, Sorghum halepense
Summary of the method: as §2

eastern black nightshade = test: Test C pre-/postemergence herbicide test; format: in vivo, Solanum ptycanthum; conditions: for Plant response rating (0 = no effect, 100 = complete control), Nightshade / Plant response rating, Nightshade: preemergence; for Nightshade plant response rating: Preemergence, scale 0 to 100, 0 no effect, 100 complete control
Summary of the method: as §2

soybean = test: Test C pre-/postemergence herbicide test; format: in vivo, Glycine max
Summary of the method: as §2

[1] = Postemergence, 500 g ai/ha, 0 to 100 scale, 0 no effect, 100 complete control
[2] = Postemergence, 2000 g ai/ha, 0 to 100 scale, 0 no effect, 100 complete control
[3] = Preemergence, 500 g ai/ha, visual rating, 0 to 100 scale (0 no effect, 100 complete control)
[4] = Preemergence, 2000 g ai/ha, 0 to 100 scale, 0 no effect, 100 complete control
[5] = 500 g ai/ha, visual rating 0-100, 0 no effect, 100 complete control, preemergence
[6] = Postemergence, 500 g ai/ha, visual rating after 13 to 15 days, scale 0 (no effect) to 100 (complete control)
[7] = 125 g ai/ha, visual rating, scale 0 (no effect) to 100 (complete control)
[8] = preemergence, 125 g ai/ha, 0 to 100 scale, 0 is no effect, 100 is complete control
[9] = 125 g ai/ha, scale 0 (no effect) to 100 (complete control), visual, 12 to 14 days, preemergence
[10] = 250 g ai/ha, scale 0 to 100 (0 no effect, 100 complete control), visual, 12 to 14 days, preemergence
[11] = Postemergence, 250 g ai/ha, scale 0 to 100, 0 no effect, 100 complete control
[12] = Preemergence, scale 0 to 100, 0 no effect, 100 complete control
[13] = postemergence, 125 g ai/ha, scale 0 to 100
[14] = postemergence, 62 g ai/ha, scale 0 to 100
[15] = Postemergence, 500 g ai/ha, scale 0 to 100
[16] = Preemergence, 500 g ai/ha, scale 0 to 100, 0 no effect, 100 complete control
[17] = 125 g ai/ha, scale 0 (no effect) to 100 (complete control), visual, 12 to 14 days
[18] = Preemergence, 2000 g ai/ha, visual rating, 0 to 100 scale (0 no effect, 100 complete control)
[19] = preemergence, 500 g ai/ha, visual injury, 0 to 100 scale (0 no effect, 100 complete control)
[20] = 125 g ai/ha, 0 = no effect, 100 = complete control, preemergence
[21] = 500 g ai/ha, visual rating, scale 0 (no effect) to 100 (complete control)
[22] = 62 g ai/ha, preemergence, scale 0 to 100, 0 no effect, 100 complete control
[23] = 250 g ai/ha, scale 0-100, preemergence
[24] = 62 g ai/ha, preemergence, scale 0 to 100
[25] = 500 g ai/ha, scale 0 to 100 (0 no effect, 100 complete control), visual, 12 to 14 days, preemergence

CCOC(=O)c1cc(NC(=O)c2cc(C(C)(C)C)nn2CC)ccc1OC [Compound 96]
Barnyardgrass plant response rating (barnyardgrass; [1]): 60
Plant response rating, Barnyardgrass (barnyardgrass; [2]): 80
Barnyardgrass plant response rating (barnyardgrass; [3]): 70
Barnyardgrass plant response rating (barnyardgrass; [4]): 90
Crabgrass, Large plant response rating (large crabgrass; [1]): 30
Plant response rating, Crabgrass, Large (large crabgrass; [2]): 70
Crabgrass, Large plant response rating (large crabgrass; [3]): 80
Crabgrass, Large plant response rating (large crabgrass; [4]): 100
Pigweed plant response rating (redroot pigweed; [1]): 95
Plant response rating, Pigweed (redroot pigweed; [2]): 100
Pigweed plant response rating (redroot pigweed; [3]): 100
Pigweed plant response rating (redroot pigweed; [4]): 100
Plant response rating, Velvetleaf (velvetleaf; [5]): 90
Plant response rating, Velvetleaf (velvetleaf; [6]): 80
Velvetleaf plant response rating (velvetleaf; [7]): 70
Plant response rating, Velvetleaf (velvetleaf; [8]): 50
Plant response rating (0 = no effect, 100 = complete control), Bermudagrass (bermudagrass; 62 g ai/ha, preemergence): 40
Plant response rating, Bermudagrass (bermudagrass; [9]): 80
Plant response rating, Bermudagrass (bermudagrass; [10]): 85
Bermudagrass plant response rating (bermudagrass; Postemergence, scale 0 to 100): 5
Plant response rating, Bermudagrass (bermudagrass; [11]): 5
Bermudagrass plant response rating (bermudagrass; [12]): 100
Plant response rating, Bermudagrass (bermudagrass; [13]): 0
Plant response rating, Bermudagrass (bermudagrass; [14]): 0
Plant response rating (0 = no effect, 100 = complete control), Cocklebur (cocklebur; 62 g ai/ha, preemergence): 0
Plant response rating, Cocklebur (cocklebur; [9]): 5
Plant response rating, Cocklebur (cocklebur; [10]): 20
Cocklebur plant response rating (cocklebur; Postemergence, scale 0 to 100): 95
Plant response rating, Cocklebur (cocklebur; [11]): 90
Cocklebur plant response rating (cocklebur; [12]): 90
Plant response rating, Cocklebur (cocklebur; [13]): 10
Plant response rating, Cocklebur (cocklebur; [14]): 5
Plant response rating (0 = no effect, 100 = complete control), Johnsongrass (johnsongrass; 62 g ai/ha, preemergence): 40
Plant response rating, Johnsongrass (johnsongrass; [9]): 60
Johnsongrass plant response rating (johnsongrass; [15]): 50
Plant response rating, Johnsongrass (johnsongrass; [11]): 50
Johnsongrass plant response rating (johnsongrass; [16]): 95
Plant response rating, Johnsongrass (johnsongrass; [13]): 50
Plant response rating, Johnsongrass (johnsongrass; [14]): 0
Plant response rating (0 = no effect, 100 = complete control), Nightshade (eastern black nightshade; 62 g ai/ha): 90
Plant response rating, Nightshade (eastern black nightshade; [17]): 95
Nightshade plant response rating (eastern black nightshade; 500 g ai/ha): 100
Plant response rating (0 = no effect, 100 = complete control), Soybean (soybean; 62 g ai/ha, preemergence): 0
Plant response rating, Soybean (soybean; [9]): 5
Soybean plant response rating (soybean; [15]): 100
Plant response rating, Soybean (soybean; [11]): 100
Soybean plant response rating (soybean; [16]): 50
Plant response rating, Soybean (soybean; [13]): 100
Plant response rating, Soybean (soybean; [14]): 100

C=CCNC(=O)c1cccc(NC(=O)c2sc(C(C)(C)C)nc2CC)c1 [Compound 207]
Barnyardgrass plant response rating (barnyardgrass; [1]): 40
Plant response rating, Barnyardgrass (barnyardgrass; [2]): 70
Barnyardgrass plant response rating (barnyardgrass; [18]): 80
Barnyardgrass plant response rating (barnyardgrass; [19]): 70
Crabgrass, Large plant response rating (large crabgrass; [1]): 20
Plant response rating, Crabgrass, Large (large crabgrass; [2]): 65
Crabgrass, Large plant response rating (large crabgrass; [18]): 90
Crabgrass, Large plant response rating (large crabgrass; [19]): 95
Pigweed plant response rating (redroot pigweed; [1]): 30
Plant response rating, Pigweed (redroot pigweed; [2]): 45
Pigweed plant response rating (redroot pigweed; [18]): 100
Pigweed plant response rating (redroot pigweed; [19]): 100
Velvetleaf plant response rating (0 to 100 scale) (velvetleaf; [20]): 20
Plant response rating, Velvetleaf (velvetleaf; [5]): 60
Velvetleaf plant response rating (velvetleaf; [7]): 20
Velvetleaf plant response rating (velvetleaf; [21]): 30
Plant response rating, Bermudagrass (bermudagrass; [22]): 50
Plant response rating, Bermudagrass (bermudagrass; [9]): 80
Plant response rating, Bermudagrass (bermudagrass; [23]): 100
Bermudagrass plant response rating (bermudagrass; [12]): 100
Plant response rating, Cocklebur (cocklebur; [24]): 0
Plant response rating, Cocklebur (cocklebur; [9]): 0
Plant response rating, Cocklebur (cocklebur; [23]): 0
Cocklebur plant response rating (cocklebur; [12]): 0
Plant response rating, Johnsongrass (johnsongrass; [24]): 0
Plant response rating, Johnsongrass (johnsongrass; [9]): 10
Plant response rating, Johnsongrass (johnsongrass; [23]): 40
Johnsongrass plant response rating (johnsongrass; [16]): 50
Plant response rating, Nightshade (eastern black nightshade; 62 g ai/ha, scale 0 to 100): 60
Plant response rating, Nightshade (eastern black nightshade; [17]): 75
Plant response rating, Nightshade (eastern black nightshade; 250 g ai/ha, scale 0-100): 100
Nightshade plant response rating (eastern black nightshade; 500 g ai/ha): 100
Plant response rating, Soybean (soybean; [24]): 0
Plant response rating, Soybean (soybean; [9]): 0
Plant response rating, Soybean (soybean; [23]): 0
Soybean plant response rating (soybean; [16]): 0

CCCN1CCc2c(NC(=O)c3cc(C(C)(C)C)nn3CC)cccc2C1=O [Compound 65]
Plant response rating, Barnyardgrass (barnyardgrass; [1]): 45
Plant response rating, Barnyardgrass (barnyardgrass; [2]): 75
Barnyardgrass plant response rating (barnyardgrass; [3]): 55
Barnyardgrass plant response rating (barnyardgrass; [4]): 70
Plant response rating, Crabgrass, Large (large crabgrass; [1]): 30
Plant response rating, Crabgrass, Large (large crabgrass; [2]): 60
Crabgrass, Large plant response rating (large crabgrass; [3]): 95
Crabgrass, Large plant response rating (large crabgrass; [4]): 100
Plant response rating, Pigweed (redroot pigweed; [1]): 70
Plant response rating, Pigweed (redroot pigweed; [2]): 70
Pigweed plant response rating (redroot pigweed; [3]): 100
Pigweed plant response rating (redroot pigweed; [4]): 100
Plant response rating, Velvetleaf (velvetleaf; [6]): 10
Velvetleaf plant response rating (velvetleaf; [7]): 10
Plant response rating, Velvetleaf (velvetleaf; [8]): 10
Plant response rating (0 = no effect, 100 = complete control), Bermudagrass (bermudagrass; 62 g ai/ha, preemergence): 40
Plant response rating, Bermudagrass (bermudagrass; [9]): 85
Plant response rating, Bermudagrass (bermudagrass; [10]): 95
Bermudagrass plant response rating (bermudagrass; [12]): 95
Plant response rating (0 = no effect, 100 = complete control), Cocklebur (cocklebur; 62 g ai/ha, preemergence): 0
Plant response rating, Cocklebur (cocklebur; [9]): 0
Plant response rating, Cocklebur (cocklebur; [10]): 0
Cocklebur plant response rating (cocklebur; [12]): 0
Plant response rating (0 = no effect, 100 = complete control), Johnsongrass (johnsongrass; 62 g ai/ha, preemergence): 10
Plant response rating, Johnsongrass (johnsongrass; [9]): 40
Johnsongrass plant response rating (johnsongrass; [16]): 100
Plant response rating (0 = no effect, 100 = complete control), Nightshade (eastern black nightshade; 62 g ai/ha): 50
Plant response rating, Nightshade (eastern black nightshade; [17]): 90
Nightshade plant response rating (eastern black nightshade; 500 g ai/ha): 100
Plant response rating (0 = no effect, 100 = complete control), Soybean (soybean; 62 g ai/ha, preemergence): 0
Plant response rating, Soybean (soybean; [9]): 0
Soybean plant response rating (soybean; [16]): 20

CCNC(=O)c1cccc(NC(=O)c2sc(C(C)(C)C)nc2CC)n1 [Compound 213]
Barnyardgrass plant response rating (barnyardgrass; [1]): 25
Plant response rating, Barnyardgrass (barnyardgrass; [2]): 45
Barnyardgrass plant response rating (barnyardgrass; [18]): 70
Barnyardgrass plant response rating (barnyardgrass; [19]): 40
Crabgrass, Large plant response rating (large crabgrass; [1]): 20
Plant response rating, Crabgrass, Large (large crabgrass; [2]): 30
Crabgrass, Large plant response rating (large crabgrass; [18]): 95
Crabgrass, Large plant response rating (large crabgrass; [19]): 55
Pigweed plant response rating (redroot pigweed; [1]): 30
Plant response rating, Pigweed (redroot pigweed; [2]): 40
Pigweed plant response rating (redroot pigweed; [18]): 95
Pigweed plant response rating (redroot pigweed; [19]): 75
Velvetleaf plant response rating (0 to 100 scale) (velvetleaf; [20]): 0
Plant response rating, Velvetleaf (velvetleaf; 500 g ai/ha, visual rating, 0 = no effect, 100 = complete control, preemergence): 80
Velvetleaf plant response rating (velvetleaf; [7]): 0
Velvetleaf plant response rating (velvetleaf; [21]): 60
Plant response rating, Bermudagrass (bermudagrass; [22]): 50
Plant response rating, Bermudagrass (bermudagrass; [9]): 60
Plant response rating, Bermudagrass (bermudagrass; [23]): 80
Bermudagrass plant response rating (bermudagrass; [12]): 90
Plant response rating, Cocklebur (cocklebur; [23]): 100
Cocklebur plant response rating (cocklebur; [12]): 100
Plant response rating, Johnsongrass (johnsongrass; [24]): 0
Plant response rating, Johnsongrass (johnsongrass; [9]): 55
Plant response rating, Johnsongrass (johnsongrass; [23]): 60
Plant response rating, Johnsongrass (johnsongrass; [25]): 80
Plant response rating, Nightshade (eastern black nightshade; 62 g ai/ha, scale 0 to 100): 100
Plant response rating, Nightshade (eastern black nightshade; [17]): 100
Plant response rating, Nightshade (eastern black nightshade; 250 g ai/ha, scale 0-100): 100
Plant response rating, Nightshade (eastern black nightshade; 500 g ai/ha, scale 0 to 100 (0 no effect, 100 complete control), visual, 12 to 14 days): 100
Plant response rating, Soybean (soybean; [24]): 0
Plant response rating, Soybean (soybean; [9]): 0
Plant response rating, Soybean (soybean; [23]): 0
Plant response rating, Soybean (soybean; [25]): 0
